Experimental data taken from US4874851A, “3',4'-dinitrogen substituted epipodophyllotoxin glucoside derivatives” (Bristol-Meyers Company, priority 1987, dated 1989).
≈ marks a conversion by molar mass, not a printed value.

How the values were obtained:
KB human nasopharyngyl = assay: In vitro cytotoxicity assay, KB human nasopharyngyl; type: cell-based; conditions: inhibit cell growth by 50%, four-fold serial dilution, two lines per compound
Procedure: (§1) Representative compounds of the present invention were evaluated for their antitumor activity in in vitro cytotoxicity assay against human and murine tumor cell lines, as well as against transplantable murine P388 leukemia.
(§2) The in vitro cytotoxicity assay involved growing various mammalian tumor cells, including human tumor cells, on microtitre plates employing established tissue culture methods. The concentration of each compound required to inhibit cell growth by 50% (IC50) was then determined by a four-fold serial dilution technique. The validity of the method has been supported by a report published in the "Proceedings of the American Association for Cancer Research", 1984, 25: 1891 (Abst. No. 328). Tumor cells of the following types were employed for each compound tested: B16-F10 murine melanoma; KB human nasopharyngyl; Moser human colon; SW900 human lung; M109 murine lung; and three human colon tumor cell lines namely HCT-116, HCT-VM, and HCT-VP, the latter two being resistant to teniposide (VM) and etoposide (VP), respectively. IC50 values less than 500 μg/ml are a positive indicator of antitumor activity. Table II presents IC50 values of various compounds of the present invention against the aforementioned cell lines.

M109 murine lung = assay: In vitro cytotoxicity assay, M109 murine lung; type: cell-based; conditions: four-fold serial dilution, two lines per compound; for IC50: Mus musculus, M109, inhibit cell growth by 50%; for IC50 M109: inhibit cell growth by 50%
Procedure: as §1, §2

P388 leukemia = assay: Antitumor activity against transplantable murine P388 leukemia in mice (i.p. implant); type: in vivo, murine (female CDF1 mice); conditions: i.p. on days 5 and 8; 10^6 ascites cells i.p.; maximum effect over doses; >=125 significant
Procedure: as §1
Female CDF1 mice were implanted intraperitoneally with a tumor inoculum of 10^6 ascites cells of P388 murine leukemia and treated with various doses of a test compound; four mice were used for each dose level and ten were used as saline-treated control. The compounds were administered by intraperitoneal injection on days 5 and 8 (day 1 being the day of tumor implantation). Antitumor activity was expressed as % T/C which is the ratio of the median survival time (MST) of drug-treated group to the MST of saline-treated control group. A compound showing a % T/C value of 125 or greater is generally considered to have significant antitumor activity in the P388 test. The experiment lasted 31 days at the end of which time the number of survivors was noted. Table I presents the results of the above-described evaluation; only the maximum % T/C and the dose showing the maximum effect are reported.

B16-F10 murine melanoma = assay: In vitro cytotoxicity assay, B16-F10 murine melanoma; type: cell-based; conditions: four-fold serial dilution, <500 μg/ml positive, two lines per compound; for IC50: Mus musculus, B16-F10, inhibit cell growth by 50%, read-out: IC50 B-16-F10; for IC50 B-16-F10: inhibit cell growth by 50%
Procedure: as §1, §2

Moser human colon = assay: In vitro cytotoxicity assay, Moser human colon; type: cell-based; conditions: inhibit cell growth by 50%, four-fold serial dilution, two lines per compound; for IC50: Homo sapiens
Procedure: as §1, §2

SW900 human lung = assay: In vitro cytotoxicity assay, SW900 human lung; type: cell-based; conditions: four-fold serial dilution, two lines per compound; for IC50: Homo sapiens, SW900, inhibit cell growth by 50%
Procedure: as §1, §2

HCT-116 = assay: In vitro cytotoxicity assay, HCT-116 human colon; type: cell-based; conditions: four-fold serial dilution, two lines per compound; for IC50: Homo sapiens, HCT-116, inhibit cell growth by 50%; for IC50 HCT-116: inhibit cell growth by 50%
Procedure: as §1, §2

HCT/VP35 = assay: In vitro cytotoxicity assay, HCT/VP35 human colon, resistant to etoposide; type: cell-based; conditions: inhibit cell growth by 50%, two lines per compound
Procedure: as §1, §2

HCT/VM46 = assay: In vitro cytotoxicity assay, HCT/VM46 human colon, resistant to teniposide; type: cell-based; conditions: inhibit cell growth by 50%, two lines per compound
Procedure: as §1, §2

[1] = test system: small cell lung cancer, non-lymphocytic leukemia, and non-seminomatous testicular cancer; conditions: AMA Drug Evaluation, 5th Edition, 1983; cited from earlier work

Compound	IC50 (KB human nasopharyngyl; Homo sapiens) [µg/mL]	IC50 KB (KB human nasopharyngyl) [µg/mL]	IC50 (M109 murine lung) [µg/mL]	IC50 M109 (M109 murine lung) [µg/mL]	Max. % T/C (median survival time treated / saline control) (P388 leukemia) [%]	IC50 (B16-F10 murine melanoma) [µg/mL]	IC50 B-16-F10 (B16-F10 murine melanoma) [µg/mL]	IC50 (Moser human colon) [µg/mL]	IC50 MOSER (Moser human colon) [µg/mL]	IC50 (SW900 human lung) [µg/mL]	IC50 (HCT-116) [µg/mL]	IC50 HCT-116 (HCT-116) [µg/mL]	IC50 SW900 (SW900 human lung; inhibit cell growth by 50%) [µg/mL]	IC50 (HCT/VP35; Homo sapiens, HCT/VP35, etoposide-resistant) [µg/mL]	IC50 HCT/VP35 (HCT/VP35; etoposide-resistant) [µg/mL]	IC50 (HCT/VM46; Homo sapiens) [µg/mL]	IC50 HCT/VM46 (HCT/VM46) [µg/mL]	activity in the treatment of a variety of cancers (in words) [1]
COC1=CC(C2c3cc4c(cc3C(OC3OC5COC(C)OC5C(O)C3O)C3COC(=O)C23)OCO4)=CC(=NOCc2ccccc2)C1=NOCc1ccccc1 (stereo not shown) [Example 1, 4'-Dehydroxy-3'-demethoxy-etoposide 3',4'-bis-O-benzyloxime]	37 (≈ 47.3 µM)	28 (≈ 35.8 µM)	83 (≈ 106 µM)	59 (≈ 75.4 µM)	126	14.5 (≈ 18.5 µM)	14.1 (≈ 18 µM)											
CON=C1C=C(C2c3cc4c(cc3C(OC3OC5COC(C)OC5C(O)C3O)C3COC(=O)C23)OCO4)C=C(OC)C1=NOC (stereo not shown) [Example 2, 4'-Dehydroxy-3'-demethoxy-etoposide 3',4'-bis-O-methyloxime]					175	29 (≈ 46 µM)	51 (≈ 80.9 µM)	54 (≈ 85.6 µM)	40 (≈ 63.4 µM)	> 250	84 (≈ 133 µM)	91 (≈ 144 µM)						
COc1cc(C2c3cc4c(cc3C(OC3OC5COC(C)OC5C(O)C3O)C3COC(=O)C23)OCO4)cc(N)c1N (stereo not shown) [Example 3, 4'-Dehydroxy-3'-demethoxy-3',4'-diamino etoposide]			104 (≈ 182 µM)	87 (≈ 152 µM)	216			87 (≈ 152 µM)	91 (≈ 159 µM)		108 (≈ 189 µM)	102 (≈ 178 µM)						
COc1cc(C2c3cc4c(cc3C(OC3OC5COC(C)OC5C(O)C3O)C3COC(=O)C23)OCO4)cc(NC(C)=O)c1NC(C)=O (stereo not shown) [Example 4, 4'-Dehydroxy-3'-demethoxy-3',4'-bis-acetylamino etoposide]					105	116 (≈ 177 µM)	98 (≈ 149 µM)	106 (≈ 161 µM)	123 (≈ 187 µM)	> 250	> 250							
COc1cc(C2c3cc4c(cc3C(OC3OC5COC(C)OC5C(O)C3O)C3COC(=O)C23)OCO4)cc(N=Cc2ccncc2)c1N=Cc1ccncc1 (stereo not shown) [Example 10, 4'-Dehydroxy-3'-demethoxy-3',4'-bis-(4-pyridylmethylene) amino Etoposide]					145	59 (≈ 78.6 µM)	100 (≈ 133 µM)			> 250	81 (≈ 108 µM)	103 (≈ 137 µM)						
COc1cc(C2c3cc4c(cc3C(OC3OC5COC(C)OC5C(O)C3O)C3COC(=O)C23)OCO4)cc2nn[nH]c12 (stereo not shown) [Example 17, 4'-Dehydroxy-3'-demethoxy-etoposide 3',4'-triazole]					125	45 (≈ 77.1 µM)	55 (≈ 94.3 µM)	91 (≈ 156 µM)	88 (≈ 151 µM)	78 (≈ 134 µM)	53 (≈ 90.8 µM)	62 (≈ 106 µM)	89 (≈ 153 µM)	84 (≈ 144 µM)	82 (≈ 141 µM)	64 (≈ 110 µM)	88 (≈ 151 µM)	
COc1cc(C2c3cc4c(cc3C(OC3OC5COC(C)OC5C(O)C3O)C3COC(=O)C23)OCO4)cc2nc[nH]c12 (stereo not shown) [Example 18, 4'-Dehydroxy-3'-demethoxy etoposide 3',4'-imidazole]					115	82 (≈ 141 µM)	55 (≈ 94.4 µM)	116 (≈ 199 µM)	115 (≈ 197 µM)	> 250	> 250							
COc1cc(C2c3cc4c(cc3C(OC3OC5COC(C)OC5C(O)C3O)C3COC(=O)C23)OCO4)cc2nc(C)c(C)nc12 (stereo not shown) [Example 20, 4'-Dehydroxy-3'-demethoxy-etoposide 3',4'-(2,3-dimethylpyrazine)]					110	118 (≈ 190 µM)	113 (≈ 181 µM)	113 (≈ 181 µM)	90 (≈ 145 µM)	> 250	103 (≈ 165 µM)	99 (≈ 159 µM)						
CCOP1(=S)Nc2cc(C3c4cc5c(cc4C(OC4OC6COC(C)OC6C(O)C4O)C4COC(=O)C34)OCO5)cc(OC)c2N1 (stereo not shown) [Example 21, 4'-Dehydroxy-3'-demethoxy etoposide 3',4'-ethylthiophosphamide]					145	23 (≈ 33.9 µM)	17.9 (≈ 26.4 µM)	21 (≈ 30.9 µM)	23 (≈ 33.9 µM)	> 250	20 (≈ 29.5 µM)	26 (≈ 38.3 µM)						
COc1cc([C@@H]2c3cc4c(cc3[C@@H](O[C@@H]3O[C@@H]5CO[C@@H](C)O[C@H]5[C@H](O)[C@H]3O)[C@H]3COC(=O)[C@H]23)OCO4)cc(OC)c1O [etoposide]																		active in the treatment of a variety of cancers
COc1cc([C@@H]2c3cc4c(cc3[C@@H](O[C@@H]3O[C@@H]5CO[C@@H](c6cccs6)O[C@H]5[C@H](O)[C@H]3O)[C@H]3COC(=O)[C@H]23)OCO4)cc(OC)c1O [teniposide]																		active in the treatment of a variety of cancers
